Laboratory results reported in ChEMBL document CHEMBL1122107, “Structure-antitumor activity relationships of 9-anilinoacridines using pattern recognition” (1982).
Several values for one entry are separate records, joined by “and”; a condition that tells them apart may be missing. Identical values can stand only once.

System: L1210
Assay: Tumor cell selectivity determined as maximal percent increase in life span (ILSmax) at LD10 dosage level in L1210 cells
Type: functional, Mus musculus

| SMILES | ILSmax |
| --- | --- |
| CS(=O)(=O)Nc1ccc(Nc2c3ccccc3nc3cc(NC(=O)/C=C/c4ccccc4)ccc23)cc1 | 25% |
| CCS(=O)(=O)Nc1ccc(Nc2c3ccccc3nc3c(C)cccc23)c(OC)c1 | 76% |
| COc1cc(NS(C)(=O)=O)ccc1Nc1c2ccccc2nc2ccccc12 [AMSACRINE] | 111% |
| N=C(N)NCCCS(=O)(=O)Nc1ccc(Nc2c3ccccc3nc3cc([N+](=O)[O-])ccc23)cc1 | 200% |
| COc1cc(NS(C)(=O)=O)ccc1Nc1c2ccccc2nc2c(C)c(C)ccc12 | 118% |
| NCCCCCCc1ccc(N=c2c3ccccc3[nH]c3ccccc23)cc1 | 25% |
| Nc1ccc(Nc2c3ccccc3nc3cc([N+](=O)[O-])ccc23)cc1 | 30% |
| CS(=O)(=O)Nc1ccc(Nc2c3ccccc3nc3ccccc23)c(Cl)c1 | 25% |
| Cc1cc(N)ccc1N=c1c2ccccc2[nH]c2ccccc12 | 76% |
| Cc1cccc2nc3ccccc3c(Nc3ccc(NS(C)(=O)=O)cc3)c12 | 25% |
| CS(=O)(=O)N1CCN(c2ccc(Nc3c4ccccc4nc4ccccc34)cc2)CC1 | 70% |
| CN(C)Cc1ccc(Nc2c3ccccc3nc3ccccc23)cc1 | 25% |
| N=C(N)NCCCCS(=O)(=O)Nc1ccc(Nc2c3ccccc3nc3ccccc23)cc1 | 25% |
| NCCCCCS(=O)(=O)Nc1ccc(Nc2c3ccccc3nc3cc([N+](=O)[O-])ccc23)cc1 | 80% |
| COc1ccc2c(Nc3ccc(NS(C)(=O)=O)cc3)c3ccc([N+](=O)[O-])cc3nc2c1 | 60% |
| COc1cc(NS(C)(=O)=O)ccc1Nc1c2ccc(Cl)cc2nc2c(C)cccc12 | 75% |
| O=C(O)COc1ccc(Nc2c3ccccc3nc3ccccc23)cc1 | 25% |
| CS(=O)(=O)Nc1ccc(Nc2c3ccccc3nc3ccccc23)cn1 | 141% |
| CCc1ccc2c(Nc3ccc(NS(C)(=O)=O)cc3OC)c3ccccc3nc2c1 | 123% |
| CCCCCCS(=O)(=O)Nc1ccc(Nc2c3ccccc3nc3c(C(N)=O)cccc23)c(OC)c1 | 87% |
| COc1cc(NS(C)(=O)=O)ccc1Nc1c2ccccc2nc2cc(C(C)C)ccc12 | 40% |
| CS(=O)(=O)Nc1ccc(Nc2c3ccccc3nc3ccccc23)c(N)c1 | 105% |
| NCCCCCS(=O)(=O)Nc1ccc(Nc2c3ccccc3nc3ccccc23)cc1 | 25% |
| CCCCCCNc1ccc(Nc2c3ccccc3nc3ccccc23)cc1 | 25% |
| Nc1ccc2c(Nc3ccc([N+](=O)[O-])cc3)c3ccccc3nc2c1 | 25% |

| SMILES | ILSmax |
| --- | --- |
| NC(Cc1ccc(NC(=O)Nc2ccc(N=c3c4ccccc4[nH]c4cc([N+](=O)[O-])ccc34)cc2)cc1)C(=O)O (centres undefined) | 80% |
| CCCCCS(=O)(=O)Nc1ccc(Nc2c3ccccc3nc3cc([N+](=O)[O-])ccc23)c(OC)c1 | 72% |
| COc1cc(NS(C)(=O)=O)ccc1Nc1c2ccccc2nc2c(CCC(N)=O)cccc12 | 105% |
| CNc1ccc2c(Nc3ccc(NS(C)(=O)=O)cc3)c3cccc(C)c3nc2c1 | 170% |
| CCCCNC(=O)c1cccc2c(Nc3ccc(NS(C)(=O)=O)cc3OC)c3ccccc3nc12 | 95% |
| CCCCCCS(=O)(=O)Nc1ccc(Nc2c3ccccc3nc3cc(NC(C)=O)ccc23)cc1 | 42% |
| N=C(N)NCCS(=O)(=O)Nc1ccc(Nc2c3ccc(N)cc3nc3ccc(N)cc23)cc1 | 85% |
| O=C(O)CCCCc1ccc(Nc2c3ccccc3nc3ccccc23)cc1 | 187% |
| CC(=O)Nc1ccc2c(Nc3ccc(NS(C)(=O)=O)cc3)c3ccc([N+](=O)[O-])cc3nc2c1 | 141% |
| NS(=O)(=O)c1ccccc1Nc1c2ccccc2nc2ccccc12 | 25% |
| COc1cc(NS(C)(=O)=O)ccc1Nc1c2ccccc2nc2cc(Br)c(N)cc12 | 99% |
| Ic1ccccc1Nc1c2ccccc2nc2ccccc12 | 25% |
| CCS(=O)(=O)Nc1ccc(Nc2c3ccccc3nc3cc(Cl)ccc23)c(OC)c1 | 95% |
| COc1cc(/C=C/C(=O)O)ccc1Nc1c2ccccc2nc2ccccc12 | 27% |
| CCCC(=O)N(c1ccc(Nc2c3ccccc3nc3cc(N)ccc23)cc1)S(C)(=O)=O | 55% |
| CCCCCS(=O)(=O)Nc1ccc(Nc2c3ccccc3nc3c(C(=O)NCCCC)cccc23)c(OC)c1 | 45% |
| CCCCCS(=O)(=O)Nc1ccc(Nc2c3ccccc3nc3c(C(N)=O)cccc23)c(OC)c1 | 93% |
| CNc1ccc2c(Nc3ccc(NS(C)(=O)=O)cc3OC)c3ccccc3nc2c1 | 83% |
| NC(=O)CCCCc1ccc(Nc2c3ccccc3nc3ccccc23)cc1 | 82% |
| CC(=O)Nc1ccc(S(=O)(=O)Nc2ccc(Nc3c4ccccc4nc4ccccc34)cc2)cc1 | 151% |
| CCCOc1cccc2c(Nc3ccc(NS(C)(=O)=O)cc3)c3ccccc3nc12 | 100% |
| COc1ccccc1Nc1c2ccccc2nc2ccccc12 | 25% |
| CS(=O)(=O)Nc1ccc(Nc2c3ccccc3nc3cccc([N+](=O)[O-])c23)cc1 | 25% |
| CC(=O)Nc1ccc2c(Nc3ccc(NS(=O)(=O)CCCNC(=N)N)cc3)c3ccc([N+](=O)[O-])cc3nc2c1 | 160% |
| NC(=O)CCCCCCCCc1ccc(Nc2c3ccccc3nc3ccccc23)cc1 | 26% |

| SMILES | ILSmax |
| --- | --- |
| COc1ccc2c(Nc3ccc(NS(C)(=O)=O)cc3)c3ccccc3nc2c1 | 107% |
| COc1cc(NS(C)(=O)=O)ccc1N=c1c2ccccc2[nH]c2ccc(C(C)(C)C)cc12 | 25% |
| O=C(O)CCCCCCCc1ccc(Nc2c3ccccc3nc3ccccc23)cc1 | 75% |
| C(=C/c1ccc(Nc2c3ccccc3nc3ccccc23)cc1)/c1ccccc1 | 25% |
| N=C(N)NCCCS(=O)(=O)Nc1ccc(Nc2c3ccc(N)cc3nc3ccc(N)cc23)cc1 | 129% |
| O=C(O)CCc1ccc(Nc2c3ccccc3nc3ccccc23)cc1 | 162% |
| COc1cccc2c(Nc3ccc(NS(C)(=O)=O)cc3)c3ccc(N)cc3nc12 | 100% |
| COc1cc(NS(=O)(=O)CCCCN)ccc1Nc1c2ccccc2nc2c(C(N)=O)cccc12 | 25% |
| Nc1ccc2c(=Nc3ccc(S(N)(=O)=O)cc3)c3ccc(N)cc3[nH]c2c1 | 60% |
| N=C(N)NCCCCS(=O)(=O)Nc1ccc(Nc2c3ccccc3nc3cc(Cl)ccc23)cc1 | 25% |
| CC(=O)NCCS(=O)(=O)Nc1ccc(Nc2c3ccccc3nc3ccccc23)cc1 | 105% |
| Nc1ccc(C(=O)Nc2ccc(N=c3c4ccccc4[nH]c4ccc(N)cc34)cc2)cc1 | 76% |
| O=C(O)/C=C\c1ccccc1Nc1c2ccccc2nc2ccccc12 | 25% |
| COc1cc(NS(C)(=O)=O)ccc1Nc1c2ccccc2nc2cccc([N+](=O)[O-])c12 | 50% |
| N=C(N)Nc1ccc(NC(=O)Nc2ccc(N=c3c4ccccc4[nH]c4cc([N+](=O)[O-])ccc34)cc2)cc1 | 200% |
| Cc1ccc2c(Nc3ccc(NS(C)(=O)=O)cc3)c3ccc([N+](=O)[O-])cc3nc2c1 | 170% |
| COc1cc(NS(C)(=O)=O)ccc1Nc1c2cccc(C)c2nc2c(C)c(C)ccc12 | 120% |
| COc1ccc2c(Nc3ccc(NS(C)(=O)=O)cc3OC)c3ccc(Cl)cc3nc2c1 | 50% |
| COc1cc(Nc2c3ccccc3nc3ccccc23)ccc1N | 25% |
| CCCCS(=O)(=O)Nc1ccc(Nc2c3ccccc3nc3cc([N+](=O)[O-])ccc23)cc1 | 110% |
| Cc1ccc2nc3ccccc3c(Nc3ccc(NS(C)(=O)=O)cc3)c2c1 | 25% |
| CNc1ccc2c(Nc3ccc(C(=O)O)cc3)c3ccccc3nc2c1 | 25% |
| COc1cc(NS(C)(=O)=O)ccc1Nc1c2ccc(C)cc2nc2c(OC)cccc12 | 72% |
| Fc1ccc(Nc2c3ccccc3nc3ccccc23)cc1 | 25% |
| CS(=O)(=O)c1ccc(S(=O)(=O)Nc2ccc(Nc3c4ccccc4nc4ccccc34)cc2)cc1 | 128% |

| SMILES | ILSmax |
| --- | --- |
| COc1cc(NS(C)(=O)=O)ccc1Nc1c2ccccc2nc2cc(N)ccc12 | 102% |
| COc1ccc(Nc2c3ccccc3nc3ccccc23)cc1 | 25% |
| NCCc1ccc(Nc2c3ccccc3nc3cc([N+](=O)[O-])ccc23)cc1 | 25% |
| NC(=O)N/N=C/c1ccc(Nc2c3ccccc3nc3ccccc23)cc1 | 72% |
| COc1cccc2c(Nc3ccc(NS(C)(=O)=O)cc3)c3ccc(I)cc3nc12 | 80% |
| CCCCNC(=O)c1cccc2c(Nc3ccc(NS(=O)(=O)CCC)cc3OC)c3ccccc3nc12 | 71% |
| Cc1cccc2c(Nc3ccc(NS(C)(=O)=O)cc3)c3ccc([N+](=O)[O-])cc3nc12 | 120% and 130% |
| CNS(=O)(=O)c1ccc(N=c2c3ccccc3[nH]c3cc(N)ccc23)cc1 | 55% |
| CN(c1ccc(N=c2c3ccccc3[nH]c3cc(N)ccc23)cc1)S(C)(=O)=O | 100% |
| CCCC(=O)N(c1ccc(Nc2c3ccccc3nc3c(C)cccc23)cc1)S(C)(=O)=O | 75% |
| COc1cc(NS(C)(=O)=O)ccc1N=c1c2ccccc2[nH]c2ccc(C(N)=O)cc12 | 25% |
| N=C(N)NCCCCS(=O)(=O)Nc1ccc(Nc2c3ccccc3nc3cc([N+](=O)[O-])ccc23)cc1 | 110% |
| COc1ccc2c(Nc3ccc(NS(C)(=O)=O)cc3)c3ccc(N)cc3nc2c1 | 105% |
| Cc1cccc2c(Nc3ccc(NS(C)(=O)=O)cc3)c3ccc(N)cc3nc12 | 110% |
| O=S(=O)(CCl)Nc1ccc(Nc2c3ccccc3nc3ccccc23)cc1 | 55% |
| O=C(Cc1ccccc1)Nc1ccc(Nc2c3ccccc3nc3ccccc23)cc1 | 25% |
| COc1cc(N)ccc1Nc1c2ccccc2nc2ccccc12 | 25% and 66% |
| Cc1cc(NS(C)(=O)=O)ccc1Nc1c2ccc([N+](=O)[O-])cc2nc2c(C)c(C)ccc12 | 60% |
| COc1cc(NS(C)(=O)=O)ccc1Nc1c2ccccc2nc2c(OC)cccc12 | 110% |
| Cc1cccc2c(Nc3ccc(NS(=O)(=O)CCCCN)cc3)c3cccc(C)c3nc12 | 72% |
| CCOc1cc(NS(C)(=O)=O)ccc1Nc1c2ccccc2nc2ccccc12 | 75% |
| O=C(O)c1ccc(Nc2c3ccccc3nc3ccccc23)cc1 | 90% |
| Cc1cc(NS(C)(=O)=O)ccc1Nc1c2ccccc2nc2c(N)cccc12 | 120% |
| CS(=O)(=O)Nc1ccc(Nc2c3ccccc3nc3ccccc23)c(OCCO)c1 | 67% |
